How the values were obtained:
[1] = test system: tyrosine phosphorylation in platelets; assay: Phosphotyrosine western blot (4G10) of platelets treated with peptide; format: cell-based, human (healthy volunteers); parameters: key to Phospho: R: in resting platelets; A: after TRAP activation; settings: phosphorylation changes associated with peptide treatment; pal 20 μM, tat 50 μM, TRAP 4 μM
Procedure: A platelet concentration of 3x10^5 /μl was used when performing standard aggregations and a concentration of 1x10^6 /μl was used for sample preparation for western blot analysis. The extent of platelet aggregation was measured by quantifying the optical density of the samples using the Bio-Data PAP-8 aggregometer (platelet aggregation profiler, Horsham, PA, USA). A temperature of 37°C was maintained and samples were stirred using magnets spinning at 1100 rpm. 200 μl of washed platelets was added to each aggregation tube. Different volumes of buffer, peptide and TRAP were added to achieve the desired concentrations. Peptide/buffer was added to each well after two minutes. TRAP, with a final concentration depending on the experiment, was added 6 minutes later and data was collected for an additional 7 minutes.
After the aggregation step, tubes were immediately placed on ice. 27 μl of lysis buffer was then added and the tube was vortexed vigorously. Lysates were left on ice for one hour and vortexed frequently. Proteins were then centrifuged at 14,000 rcf for 10 minutes to remove debris. Samples were then mixed with 2x sample buffer. 50 μl each sample was added to 50 μl of sample buffer. The protein was then denatured by heating to 95°C for 5 minutes. 10 μl of lysate was kept for protein quantification. All samples and lysates were frozen at -80°C.
The Bradford assay was then performed on the lysates to determine protein concentration. Protein concentrations were measured using the Bio-Rad DC Protein Assay. A calibration was created using samples containing a known concentration of bovine serum albumin. These were prepared in advance by sequential dilutions with final concentrations of 1.5mg/ml, 1mg/ml, 0.8mg/ml, 0.6mg/ml, 0.4mg/ml, 0.2mg/ml, 0mg/ml. Samples were then dispensed into a 96 well plate and the Bio-Rad DC reagents were added as described in the protocol. Samples were left to rest for 15 minutes and were then read using 690 0.15 mode on the Wallac plate reader. A standard curve was calculated from the standard samples of known concentration and the y = ax+b equation was used to determine the concentration of the other samples.
Sodium Dodecyl Sulfate Polyacrylamide Gel Electrophoresis (SDS-PAGE) was performed to separate proteins by molecular weight. Polyacrylamide gels were prepared (see Reagents section). Samples or molecular markers were loaded in volumes to give 20 μg of protein. The gels were then run for approximately 80 minutes or until the samples reached the end of the gel. The proteins were then transferred to polyvinylidene difluoride (PVDF) membranes using a Bio-Rad Wet Blot Transfer Cell apparatus. During the transfer the membranes were submerged in 1x transfer buffer (10% 10x transfer buffer, 70% deionised water and 20% methanol). Transfer was performed either overnight at 40 volts at 4°C, or at 100 volts for 1 hour cooled with an ice block. After the transfer the membranes were blocked for 1 hour using 3% bovine albumin serum (BSA) dissolved in TBS-T. Membranes were incubated with 4G10 antibody with a 1:1000 dilution. Unbound primary antibody was washed off with TBS-T three times for 5 minutes each. Membranes were then incubated with anti-mouse IgG secondary antibody (Millipore) with a dilution of 1:30,000. Membranes were submerged in chemiluminescence ECL solution (Thermo Scientific). They were then measured using the western blot developer UVP. One image was taken every 80 seconds for 40 minutes. Numeric data was extracted from selected blots using ImageJ.

[2] = biological target: T1, paxillin in HeLa cells (Homo sapiens, UniProt P49023); assay: Co-localization of 5FAM-labeled peptide with paxillin in HeLa cells (microscopy); format: cell-based; settings: 15 μM, 5-15 minutes
T1 construct: endogenous in cells; host or cells: HeLa
T1 sequence (P49023 whole entry): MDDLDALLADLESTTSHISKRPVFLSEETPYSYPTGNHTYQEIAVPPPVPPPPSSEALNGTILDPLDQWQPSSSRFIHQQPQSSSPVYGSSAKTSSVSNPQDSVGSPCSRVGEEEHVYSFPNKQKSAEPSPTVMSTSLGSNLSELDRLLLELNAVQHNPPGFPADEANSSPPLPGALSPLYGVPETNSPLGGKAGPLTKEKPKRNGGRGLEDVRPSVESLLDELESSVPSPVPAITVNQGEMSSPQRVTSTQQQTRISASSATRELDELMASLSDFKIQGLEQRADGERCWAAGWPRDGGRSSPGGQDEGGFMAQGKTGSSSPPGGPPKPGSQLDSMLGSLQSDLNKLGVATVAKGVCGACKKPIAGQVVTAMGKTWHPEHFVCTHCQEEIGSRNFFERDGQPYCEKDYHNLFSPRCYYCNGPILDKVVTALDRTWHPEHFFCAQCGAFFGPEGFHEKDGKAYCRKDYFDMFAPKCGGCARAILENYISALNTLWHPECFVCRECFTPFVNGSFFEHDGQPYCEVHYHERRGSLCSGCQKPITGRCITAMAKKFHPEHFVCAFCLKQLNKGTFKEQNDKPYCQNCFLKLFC
Procedure: HeLa cells were seeded on a 24-well plate with inserted coverslips at a density of 30000 cells/well. After 24h the cells were treated with 15 μM peptide for the desired amount of time (5, 10, 15 minutes). Cells were then fixed in 3% paraformaldehyde (PFA, Sigma) for 20 minutes and permeabilized with 0.1% Triton X-100 (Sigma) for 5 minutes at room temperature. Cells were then washed 3 times with PBS and stained with antibodies. Staining with primary antibody (paxillin/vinculin (Abcam)) was performed for 30 minutes, followed by three PBS washes and secondary staining using goat anti-mouse Alexa 568 antibody (Life Technologies) for 30 minutes. Then the nuclei were stained with 0.2 μg/ml Hoechst33342, the coverslips were thoroughly washed with PBS and mounted on glass slides with Mowiol mounting medium. The slides were then imaged on a FluoView FV1000 laser scanning microscope (Olympus) with 60x UPLSAPO 1.35NA (Olympus) oil immersion objective.

tat-WEQLLTTIARTINEVENQI-(NH2) [tat-ACTN1_VBS]
Phospho [1]: R
Co-localization with paxillin [2]: did not co-localize

— PMC6349357, “Computational and experimental analysis of bioactive peptide linear motifs in the integrin adhesome” (PLoS ONE, 2019)
